According to patent US20200055817A1 (AbbVie Deutschland GmbH & Co. KG, priority 2016, published 2020):
pEC50: −log10 of the molar value.

Experiments:
Format in all cases: cell-based
[1] = target: T1, human EDG8 (S1PR5) receptor (Homo sapiens, UniProt Q9H228); assay: Aequorin assay, agonist potency, CHO-A21-EDG8#12 cells; settings: agonist mode, aequorin luminescence; read-out: S1P5 EC50 range #
T1 construct: carries the transgenes human EDG8 (S1PR5) receptor (Acession number NP_110387.1); expressed in transfected cells; host or cells: CHO-A21-EDG8#12 (CHO clone co-expressing mitochondrial aequorin and chimaeric Gaqi5)
T1 sequence (Q9H228 whole entry): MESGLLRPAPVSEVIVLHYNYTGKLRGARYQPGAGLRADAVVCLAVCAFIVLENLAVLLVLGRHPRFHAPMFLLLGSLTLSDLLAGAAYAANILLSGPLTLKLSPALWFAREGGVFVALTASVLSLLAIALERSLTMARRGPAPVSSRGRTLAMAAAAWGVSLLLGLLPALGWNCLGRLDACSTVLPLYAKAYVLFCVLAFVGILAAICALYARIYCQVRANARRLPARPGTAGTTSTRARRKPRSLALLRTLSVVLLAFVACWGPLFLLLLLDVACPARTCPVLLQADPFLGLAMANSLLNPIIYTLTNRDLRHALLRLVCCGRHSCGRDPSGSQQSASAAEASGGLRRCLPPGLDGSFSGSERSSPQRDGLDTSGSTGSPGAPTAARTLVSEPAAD
In short: (§1)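 CHO cells coexpressing receptor, mitochondrial aequorin and Gαqi5 (S1P3 pool: GNA16) were loaded overnight at RT with 5 μM coelenterazine h in 0.1% fatty-acid-free BSA buffer. Cells were injected onto compound, luminescence recorded 90 s and integrated, normalised to digitonin or 20 μM ATP; sigmoidal fit.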

[2] = target: T2, S1P4 (Homo sapiens, UniProt O95977); assay: Aequorin assay, agonist potency, S1P4; settings: agonist mode, aequorin luminescence
T2 sequence (O95977 1-384): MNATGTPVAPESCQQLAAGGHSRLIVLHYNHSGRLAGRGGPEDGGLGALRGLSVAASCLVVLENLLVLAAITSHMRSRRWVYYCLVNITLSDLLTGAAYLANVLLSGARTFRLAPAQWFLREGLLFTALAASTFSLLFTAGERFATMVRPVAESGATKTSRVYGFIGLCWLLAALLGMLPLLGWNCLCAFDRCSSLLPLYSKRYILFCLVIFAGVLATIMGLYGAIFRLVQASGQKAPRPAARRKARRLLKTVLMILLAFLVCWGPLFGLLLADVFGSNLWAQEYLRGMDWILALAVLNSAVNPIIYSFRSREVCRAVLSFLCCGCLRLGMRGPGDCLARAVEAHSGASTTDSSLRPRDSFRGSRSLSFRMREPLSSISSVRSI
In short: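 Cells loaded overnight at RT with 5 μM coelenterazine h in DMEM/HAM's F12 with HEPES plus 0.1% fatty acid-free BSA, then injected onto compounds; agonist-induced calcium luminescence recorded for 90 s and integrated. Signal normalised to digitonin (100 μM) or ATP (20 μM) wells, S1P as reference agonist; sigmoidal nonlinear regression.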

[3] = target: T3, human EDG1 (S1PR1) receptor (Homo sapiens, UniProt P21453); assay: Aequorin assay, agonist potency, CHO-A21-Edg1#17 cells; settings: agonist mode, aequorin luminescence; read-out: S1P1 EC50
T3 construct: expressed in transfected cells; host or cells: CHO-A21-Edg1#17 (CHO clone co-expressing mitochondrial aequorin and chimaeric Gaqi5)
T3 sequence (P21453 whole entry): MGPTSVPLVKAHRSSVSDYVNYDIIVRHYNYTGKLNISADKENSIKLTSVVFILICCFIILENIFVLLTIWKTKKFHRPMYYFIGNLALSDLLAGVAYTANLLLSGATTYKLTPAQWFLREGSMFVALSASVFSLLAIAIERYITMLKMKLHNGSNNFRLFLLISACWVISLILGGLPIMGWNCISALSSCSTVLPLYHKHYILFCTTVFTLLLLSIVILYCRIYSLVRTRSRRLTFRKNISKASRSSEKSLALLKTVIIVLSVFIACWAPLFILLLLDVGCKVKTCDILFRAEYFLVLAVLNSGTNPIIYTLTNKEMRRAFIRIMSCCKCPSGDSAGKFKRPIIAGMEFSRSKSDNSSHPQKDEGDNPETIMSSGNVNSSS
In short: as §1

Compound | pEC50 [1] | pEC50 [2] | pEC50 [3]
O=C(O)C1CC(N2CC3(Cc4ccc(OCc5ccc(OCC6CC6)cc5)cc4C3)C2)C1 (stereo not drawn) [Example 84, 3-(5′-((4-(cyclopropylmethoxy)benzyl)oxy)-1′,3′-dihydrospiro[azetidine-3,2′-inden]-1-yl)cyclobutanecarboxylic acid] | 5.00 to 6.00 | < 6.00 | < 6.00
CCOc1cc(F)c(COc2ccc3c(c2)CC2(C3)CN(C3CC(C(=O)O)C3)C2)c(F)c1 (stereo not drawn) [Example 85, 3-(5′-((4-ethoxy-2,6-difluorobenzyl)oxy)-1′,3′-dihydrospiro[azetidine-3,2′-inden]-1-yl)cyclobutanecarboxylic acid] | 5.00 to 6.00 | > 6.00 | < 6.00
O=C(O)C1CC(N2CC3(Cc4ccc(OCc5c(Cl)cccc5C5CC5)cc4C3)C2)C1 (stereo not drawn) [Example 91, 3-(5′-((2-chloro-6-cyclopropylbenzyl)oxy)-1′,3′-dihydrospiro[azetidine-3,2′-inden]-1-yl)cyclobutanecarboxylic acid] | ≥ 8.00 | > 6.00 | > 6.00
O=C(O)C1CC(N2CC3(Cc4ccc(C#Cc5ccc(OC6CCCC6)nc5)cc4C3)C2)C1 (stereo not drawn) [Example 95, 3-(5′-((6-(cyclopentyloxy)pyridin-3-yl)ethynyl)-1′,3′-dihydrospiro[azetidine-3,2′-inden]-1-yl)cyclobutanecarboxylic acid] | ≥ 8.00 | > 6.00 | > 6.00
CC(C)Oc1ccc(C#Cc2ccc3c(c2)CC2(C3)CN(C3CC(C(=O)O)C3)C2)cn1 (stereo not drawn) [Example 96, 3-(5′-((6-isopropoxypyridin-3-yl)ethynyl)-1′,3′-dihydrospiro[azetidine-3,2′-inden]-1-yl)cyclobutanecarboxylic acid] | 7.00 to 8.00 | < 6.00 | > 6.00
CC(C)Oc1ccc(C#Cc2ccc3c(c2)CC2(C3)CN(C3CC(C(=O)O)C3)C2)cc1 (stereo not drawn) [Example 97, 3-(5′-((4-isopropoxyphenyl)ethynyl)-1′,3′-dihydrospiro[azetidine-3,2′-inden]-1-yl)cyclobutanecarboxylic acid] | ≥ 8.00 | < 6.00 | > 6.00
CCOc1ccc(C#Cc2ccc3c(c2)CC2(C3)CN(C3CC(C(=O)O)C3)C2)cc1 (stereo not drawn) [Example 98, 3-(5′-((4-ethoxyphenyl)ethynyl)-1′,3′-dihydrospiro[azetidine-3,2′-inden]-1-yl)cyclobutanecarboxylic acid] | 7.00 to 8.00 | < 6.00 | > 6.00
O=C(O)C1CC(N2CC3(Cc4ccc(C#Cc5ccc(OCC6CC6)nc5)cc4C3)C2)C1 (stereo not drawn) [Example 99, 3-(5′-((6-(cyclopropylmethoxy)pyridin-3-yl)ethynyl)-1′,3′-dihydrospiro[azetidine-3,2′-inden]-1-yl)cyclobutanecarboxylic acid] | 6.00 to 7.00 | < 6.00 | > 6.00
CCOc1ccc(C#Cc2ccc3c(c2)CC2(C3)CN(C3CC(C(=O)O)C3)C2)cc1F (stereo not drawn) [Example 100, 3-(5′-((4-ethoxy-3-fluorophenyl)ethynyl)-1′,3′-dihydrospiro[azetidine-3,2′-inden]-1-yl)cyclobutanecarboxylic acid] | ≥ 8.00 | < 6.00 | > 6.00
COc1ccc(C#Cc2ccc3c(c2)CC2(C3)CN(C3CC(C(=O)O)C3)C2)c(C)c1 (stereo not drawn) [Example 101, 3-(5′-((4-methoxy-2-methylphenyl)ethynyl)-1′,3′-dihydrospiro[azetidine-3,2′-inden]-1-yl)cyclobutanecarboxylic acid] | 5.00 to 6.00 | > 6.00 | < 6.00
CC1CCC(C#Cc2ccc3c(c2)CC2(C3)CN(C3CC(C(=O)O)C3)C2)CC1 (stereo not drawn) [Example 102, 3-(5′-((4-methylcyclohexyl)ethynyl)-1′,3′-dihydrospiro[azetidine-3,2′-inden]-1-yl)cyclobutanecarboxylic acid] | ≥ 8.00 | > 6.00 | < 6.00
CC(Oc1ccc(C#Cc2ccc3c(c2)CC2(C3)CN(C3CC(C(=O)O)C3)C2)cn1)C(F)(F)F (stereo not drawn) [Example 103, 3-(5′-((6-((1,1,1-trifluoropropan-2-yl)oxy)pyridin-3-yl)ethynyl)-1′,3′-dihydrospiro[azetidine-3,2′-inden]-1-yl)cyclobutanecarboxylic acid] | ≥ 8.00 | > 6.00 | > 6.00
O=C(O)C1CC(N2CC3(Cc4ccc(OC5CCc6cccc(Cl)c65)cc4C3)C2)C1 (stereo not drawn) [Example 106, 3-(5′-((7-chloro-2,3-dihydro-1H-inden-1-yl)oxy)-1′,3′-dihydrospiro[azetidine-3,2′-inden]-1-yl)cyclobutanecarboxylic acid] | ≥ 8.00 | > 6.00 | > 6.00
CCOc1ccc(C#Cc2ccc3c(c2)CC2(C3)CN(CC3(C(=O)O)CC3)C2)cc1 [Example 112, 1-((5′-((4-ethoxyphenyl)ethynyl)-1′,3′-dihydrospiro[azetidine-3,2′-inden]-1-yl)methyl)cyclopropanecarboxylic acid] | 6.00 to 7.00 | < 6.00 | < 6.00

Now from value to molecule:

pEC50 [1] | pEC50 [2] | pEC50 [3] | Compound
5.00 to 6.00 | > 6.00 | < 6.00 | CCOc1ccc(COc2ccc3c(c2)CC2(C3)CN(C3CC(C(=O)O)C3)C2)c(F)c1F (stereo not drawn) [Example 86, 3-(5′-((4-ethoxy-2,3-difluorobenzyl)oxy)-1′,3′-dihydrospiro[azetidine-3,2′-inden]-1-yl)cyclobutanecarboxylic acid]
≥ 8.00 | > 6.00 | < 6.00 | O=C(O)C1CC(N2CC3(Cc4ccc(OCc5c(F)cccc5C5CC5)cc4C3)C2)C1 (stereo not drawn) [Example 87, 3-(5′-((2-cyclopropyl-6-fluorobenzyl)oxy)-1′,3′-dihydrospiro[azetidine-3,2′-inden]-1-yl)cyclobutanecarboxylic acid]
5.00 to 6.00 | > 6.00 | < 6.00 | COc1ccc(COc2ccc3c(c2)CC2(C3)CN(C3CC(C(=O)O)C3)C2)c(C)n1 (stereo not drawn) [Example 88, 3-(5′-((6-methoxy-2-methylpyridin-3-yl)methoxy)-1′,3′-dihydrospiro[azetidine-3,2′-inden]-1-yl)cyclobutanecarboxylic acid]
7.00 to 8.00 | > 6.00 | < 6.00 | O=C(O)[C@H]1C[C@H](N2CC3(Cc4ccc(OCc5cc(Cl)ccc5Cl)cc4C3)C2)C1 [Example 89, (1r,3r)-3-(5′-((2,5-dichlorobenzyl)oxy)-1′,3′-dihydrospiro[azetidine-3,2′-inden]-1-yl)cyclobutanecarboxylic acid]
6.00 to 7.00 | > 6.00 | < 6.00 | O=C(O)[C@H]1C[C@@H](N2CC3(Cc4ccc(OCc5cc(Cl)ccc5Cl)cc4C3)C2)C1 [Example 90, (1s,3s)-3-(5′-((2,5-dichlorobenzyl)oxy)-1′,3′-dihydrospiro[azetidine-3,2′-inden]-1-yl)cyclobutanecarboxylic acid]
≥ 8.00 | > 6.00 | < 6.00 | O=C(O)C1CC(N2CC3(Cc4ccc(OCc5c(Cl)cccc5Cl)cc4C3)C2)C1 (stereo not drawn) [Example 92, 3-(5′-((2,6-dichlorobenzyl)oxy)-1′,3′-dihydrospiro[azetidine-3,2′-inden]-1-yl)cyclobutanecarboxylic acid]
7.00 to 8.00 | > 6.00 | < 6.00 | O=C(O)C1CC(N2CC3(Cc4ccc(OCc5cc(Cl)ccc5Cl)cc4C3)C2)C1 (stereo not drawn) [Example 93, 3-(5′-((2,5-dichlorobenzyl)oxy)-1′,3′-dihydrospiro[azetidine-3,2′-inden]-1-yl)cyclobutanecarboxylic acid]
≥ 8.00 | > 6.00 | > 6.00 | CCc1cccc(Cl)c1COc1ccc2c(c1)CC1(C2)CN(C2CC(C(=O)O)C2)C1 (stereo not drawn) [Example 94, 3-(5′-((2-chloro-6-ethylbenzyl)oxy)-1′,3′-dihydrospiro[azetidine-3,2′-inden]-1-yl)cyclobutanecarboxylic acid]
≥ 8.00 | > 6.00 | < 6.00 | O=C(O)C1CC(N2CC3(Cc4ccc(OC5CCc6ccccc65)cc4C3)C2)C1 (stereo not drawn) [Example 104, 3-(5′-((2,3-dihydro-1H-inden-1-yl)oxy)-1′,3′-dihydrospiro[azetidine-3,2′-inden]-1-yl)cyclobutanecarboxylic acid]
5.00 to 6.00 | > 6.00 | < 6.00 | O=C(O)C1CC(N2CC3(Cc4ccc(OCCc5ccccc5C(F)(F)F)cc4C3)C2)C1 (stereo not drawn) [Example 105, 3-(5′-(2-(trifluoromethyl)phenethoxy)-1′,3′-dihydrospiro[azetidine-3,2′-inden]-1-yl)cyclobutanecarboxylic acid]
